Measurements published in patent US9221822B2, “Thiazolopyrimidine modulators as immunosuppressive agents” (Katholieke Universiteit Leuven, K.U.Leuven R&D, priority 2009, dated 2015).
pIC50: −log10 of the molar value.

test system: Human peripheral blood mononuclear cells (PBMCs) as Responder cells, RPMI 1788 Stimulator cells; experiment: Mixed Lymphocyte Reaction (MLR) test; type: cell-based; settings: Homo sapiens, RPMI-1788, lowest concentration giving 50% inhibition of the MLR; 6 days coculture, 3H-thymidine incorporation
How it was run: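 Proliferation was read as cpm after a 1 μCi ^3H-thymidine pulse on day 5 and harvest 18 h later, then expressed as % inhibition relative to an MLR without compound. The 6-day triplicate cocultures combined 0.12×10^6 Ficoll-isolated human PBMCs with 0.045×10^6 mitomycin C-inactivated RPMI 1788 cells in RPMI 1640 with 10% FCS.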

| SMILES | pIC50 |
| --- | --- |
| Nc1nc(N2CCN(C(=O)COc3ccc(Cl)cc3)CC2)c2nc(C3CCCCC3)oc2n1 [Example 187, 5-amino-2-cyclohexyl-7-[4-(4-chlorophenoxyacetyl)piperazin-1-yl]oxazolo[5,4-d]pyrimidine] | < 5.00 |
| COc1cccc(CCc2nc3c(N4CCN(C(=O)COc5ccc(Br)cc5)CC4)nc(N)nc3s2)c1 [Example 254, 1-(4-(5-amino-2-(3-methoxyphenethyl)thiazolo[5,4-d]pyrimidin-7-yl)piperazin-1-yl)-2-(4-bromophenoxy)ethanone] | 5.91 |
| COc1ccc(OCC(=O)N2CCN(c3nc(N)nc4sc(CCc5ccc(C)cc5)nc34)CC2)cc1 [Example 259, 1-(4-(5-amino-2-(4-methylphenethyl)thiazolo[5,4-d]pyrimidin-7-yl)piperazin-1-yl)-2-(4-methoxyphenoxy)ethanone] | 6.02 |
| NC(=O)c1nc(N2CCN(C(=O)COc3ccc(Cl)cc3)CC2)c2cc(-c3ccc(F)cc3)sc2n1 [Example 355, 4-(4-(2-(4-chlorophenoxy)acetyl)piperazin-1-yl)-6-(4-fluorophenyl)thieno[2,3-d]pyrimidine-2-carboxamide] | < 5.00 |
| Nc1nc(N2CCN(S(=O)(=O)Cc3ccccc3)CC2)c2cc(-c3ccc(F)cc3)sc2n1 [Example 344, 4-(4-(benzylsulfonyl)piperazin-1-yl)-6-(4-fluorophenyl)thieno[2,3-d]pyrimidin-2-amine] | < 5.00 |
| Nc1nc(N2CCN(C(=O)COc3ccc(F)cc3)CC2)c2nc(-c3cccnc3)sc2n1 [Example 272, 1-(4-(5-amino-2-(pyridin-3-yl)thiazolo[5,4-d]pyrimidin-7-yl)piperazin-1-yl)-2-(4-fluorophenoxy)ethanone] | 7.92 |
| Nc1nc(N2CCN(C(=O)Cc3ccc(Cl)cc3)CC2)c2nc(CCc3ccc(F)cc3)oc2n1 [Example 194, 5-amino-2-[2-(4-fluorophenyl)ethyl]-7-(4-[2-(4-chlorophenyl)acetyl]-piperazin-1-yl)-oxazolo[5,4-d]pyrimidine] | 5.04 |
| Cc1nc2c(N3CCN(C(=O)COc4ccc(Cl)cc4)CC3)nc(N)nc2[nH]1 [Example 400, 1-(4-(2-amino-8-methyl-9H-purin-6-yl)piperazin-1-yl)-2-(4-chlorophenoxy)ethanone] | 6.35 |
| Cc1cccc(NC(=O)N2CCN(c3nc(N)nc4sc(-c5ccc(F)cc5)cc34)CC2)c1 [Example 359, 4-(2-amino-6-(4-fluorophenyl)thieno[2,3-d]pyrimidin-4-yl)-N-m-tolylpiperazine-1-carboxamide] | 5.55 |
| Nc1nc(N2CCN(C(=O)COc3ccc(Cl)cc3)CC2)c2nc(-c3ccc(OC(F)(F)F)cc3)[nH]c2n1 [Example 395, 1-(4-(2-amino-8-(4-(trifluoromethoxy)phenyl)-9H-purin-6-yl)piperazin-1-yl)-2-(4-chlorophenoxy)ethanone] | < 5.00 |
| Nc1nc(N2CC[C@@H](NC(=O)COc3ccc(Cl)cc3)C2)c2nc(CCc3ccc(F)cc3)sc2n1 [Example 143, 5-amino-2-[2-(4-fluorophenyl)ethyl]-7-(3-(R)-[2-(4-chlorophenoxy)-acetylamino]pyrrolidin-1-yl)-thiazolo[5,4-d]pyrimidine] | < 5.00 |
| O=C(COc1ccc(Cl)cc1)N1CCN(c2ncnc3sc(CCc4ccc(F)cc4)nc23)CC1 [Example 303, 1-(4-(2-(4-fluorophenethyl)thiazolo[5,4-d]pyrimidin-7-yl)piperazin-1-yl)-2-(4-chlorophenoxy)ethanone] | 5.25 |
| Cc1cccc(NC(=O)N2CCN(c3nc(N)nc4sc(-c5ccc(F)cc5)nc34)CC2)c1 [Example 43, 4-(5-amino-2-(4-fluorophenyl)thiazolo[5,4-d]pyrimidin-7-yl)-N-m-tolylpiperazine-1-carboxamide] | 6.52 |
| CCCCCN1CCN(c2nc(N)nc3sc(-c4ccc(F)cc4)nc23)CC1 [Example 37, 2-(4-fluorophenyl)-7-(4-pentylpiperazin-1-yl)thiazolo[5,4-d]pyrimidin-5-amine] | < 5.00 |
| Nc1nc(N2CCN(CC(=O)N3CCCC3)CC2)c2nc(-c3ccc(F)cc3)[nH]c2n1 [Example 410, 2-(4-(2-amino-8-(4-fluorophenyl)-9H-purin-6-yl)piperazin-1-yl)-1-(pyrrolidin-1-yl)ethanone] | < 5.00 |
| COCCN1CCN(c2nc(N)nc3oc(-c4ccc(F)cc4)nc23)CC1 [Example 192, 5-amino-2-(4-fluorophenyl)-7-[4-(2-methoxyethyl)-piperazin-1-yl]-oxazolo[5,4-d]pyrimidine] | < 5.00 |
| Nc1nc(N2CCCN(C(=O)COc3ccc(Cl)cc3)CC2)c2cc(-c3ccccc3)sc2n1 [Example 334, 1-(4-(2-amino-6-phenylthieno[2,3-d]pyrimidin-4-yl)-1,4-diazepan-1-yl)-2-(4-chlorophenoxy)ethanone] | 5.05 |
| Cc1ccc(CCc2nc3c(N4CCN(C(=O)COc5ccc(Br)cc5)CC4)nc(N)nc3s2)cc1 [Example 258, 1-(4-(5-amino-2-(4-methylphenethyl)thiazolo[5,4-d]pyrimidin-7-yl)piperazin-1-yl)-2-(4-bromophenoxy)ethanone] | 6.03 |
| Cc1cccc(OCC(=O)N2CCN(c3nc(N)nc4sc(-c5ccccc5)cc34)CC2)c1 [Example 371, 1-(4-(2-amino-6-phenylthieno[2,3-d]pyrimidin-4-yl)piperazin-1-yl)-2-(m-tolyloxy)ethanone] | 6.68 |
| Nc1nc(N2CCN(C(=O)COc3ccccc3)CC2)c2nc(CCc3ccc(F)cc3)sc2n1 [Example 134, 5-amino-2-[2-(4-fluorophenyl)ethyl]-7-(4-[2-phenoxyacetyl]piperazin-1-yl)-thiazolo[5,4-d]pyrimidine] | 5.31 |
| Nc1nc(N2CCN(C(=O)COc3ccc(Cl)cc3)CC2)c2nc(CCc3ccc(F)cc3)oc2n1 [Example 172, 1-(4-(5-amino-2-(4-fluorophenethyl)oxazolo[5,4-d]pyrimidin-7-yl)piperazin-1-yl)-2-(4-chlorophenoxy)ethanone] | 6.10 |
| Nc1nc(N2CCN(C(=O)COc3ccc(Cl)cc3)CC2)c2nc(-c3ccccn3)sc2n1 [Example 282, 1-(4-(5-amino-2-(pyridin-2-yl)thiazolo[5,4-d]pyrimidin-7-yl)piperazin-1-yl)-2-(4-chlorophenoxy)ethanone] | 6.64 |
| COc1ccc(OCC(=O)N2CCN(c3nc(N)nc4sc(Cc5ccc(F)cc5)nc34)CC2)cc1 [Example 230, 1-(4-(5-amino-2-(4-fluorobenzyl)thiazolo[5,4-d]pyrimidin-7-yl)piperazin-1-yl)-2-(4-methoxyphenoxy)ethanone] | 6.57 |

same assay, conditions: lowest concentration giving 50% inhibition of the MLR; 6 days coculture, 3H-thymidine incorporation

| SMILES | pIC50 |
| --- | --- |
| COc1ccc(OCC(=O)N2CCN(c3nc(N)nc4sc(-c5ccc(Cl)cc5)nc34)CC2)cc1 [Example 270, 1-(4-(5-amino-2-(4-chlorophenyl)thiazolo[5,4-d]pyrimidin-7-yl)piperazin-1-yl)-2-(4-methoxyphenoxy)ethanone] | 6.82 |
| COc1ccc(OCC(=O)N2CCN(c3nc(N)nc4sc(-c5ccc(Cl)cc5)nc34)CC2)cc1 [Example 280, 1-(4-(5-amino-2-(4-chlorophenyl)thiazolo[5,4-d]pyrimidin-7-yl)piperazin-1-yl)-2-(4-methoxyphenoxy)ethanone] | < 5.00 |
| Nc1nc(N2CCN(c3ccncc3)CC2)c2nc(-c3ccc(F)cc3)[nH]c2n1 [Example 419] | < 5.00 |
